Values quoted from earlier work, collected in patent publication US20110153027A1, “Drug Delivery System” (Vysera Biomedical Limited, priority 2009, published 2011).

Assays:
[1] = minimum effective concentration
[2] = compared with cyclosporine

Structure (SMILES) | MEC [1] [µg/mL] | water solubility [2]
Sc1ncnc2nc[nH]c12 [6-mercaptopurine] | 1 | 
Cn1cnc([N+](=O)[O-])c1Sc1ncnc2nc[nH]c12 [Azathioprine] | 1 | 
O=C(O)c1cn(C2CC2)c2cc(N3CCNCC3)c(F)cc2c1=O [Ciprofloxacin] | 0.2 | 
Cc1ncc([N+](=O)[O-])n1CCO [Metronidazole] | 8 | higher water solubility than cyclosporine
